Source: PMC7516806, “Hybrid Antimicrobial Peptide Targeting Staphylococcus aureus and Displaying Anti-infective Activity in a Murine Model” (Frontiers in Microbiology, 2020)
Positions of bridges follow the written chain, without caps; N, C: chain ends. Residues, ends and D or L forms follow the SMILES beside them. No end group written: not given here.

What was measured:
[1] = test system: S. aureus 29213; assay: MIC in the presence of physiological salts; type: cell-based, Staphylococcus aureus; conditions: three independent repeats
Method: (§1) The experiment was repeated at least three times independently.
The MIC of peptides was determined in the presence of salts at physiological concentrations (150 mM NaCl, 4.5 mM KCl, 6 μM NH4Cl, 8 μM ZnCl2, 1 mM MgCl2, 2 mM CaCl2, and 4 μM FeCl3) as described previously ([Dong et al., 2014]). All experiments were performed three times independently.

[2] = test system: panel of bacterial species; assay: MIC against a panel of bacterial species (summary statements); type: cell-based; conditions: all tested bacteria, up to the highest concentration measured
From the text: as §1

[3] = test system: L. plantarum 8014; assay: MIC, modified microtiter dilution; type: cell-based, Lactobacillus plantarum; conditions: 2–7 × 10^5 CFU/ml, 37°C, 24 h, no turbidity, at least three independent repeats
From the text: as §1

[4] = test system: P. aeruginosa 27853; assay: MIC, modified microtiter dilution; type: cell-based, Pseudomonas aeruginosa; conditions: MHB, 2–7 × 10^5 CFU/ml, 37°C, 24 h, no turbidity, at least three independent repeats
From the text: as §1

[5] = test system: MRSA 43300; type: cell-based, Staphylococcus aureus; conditions: MHB, 2–7 × 10^5 CFU/ml, 37°C, 24 h, no turbidity, at least three independent repeats
From the text: as §1

[6] = test system: E. coli K99; conditions: MHB, 2–7 × 10^5 CFU/ml, 37°C, 24 h, no turbidity, at least three independent repeats
From the text: (§2) The bacterial strains Escherichia coli (E. coli) ATCC 25922, E. coli K88, E. coli K99, Pseudomonas aeruginosa (P. aeruginosa) ATCC 27853, Escherichia coli (E. coli) UB1005, Salmonella typhimurium 14028, Salmonella pullorum (S. pullorum) C7913, S. typhimurium C7731, S. aureus ATCC 29213, MRSA ATCC 43300, and S. aureus ATCC 25923 were obtained from the College of Veterinary Medicine, Northeast Agricultural University, China. Lactobacillus plantarum (L. plantarum) 8014, Lactobacillus rhamnosus (L. rhamnosus) 7469, L. rhamnosus 1.0911, L. rhamnosus 1.0936, and L. rhamnosus 1.0385 were obtained from the Key Laboratory of Food College, Northeast Agricultural University, China.
(§3) As in a previous study, the antimicrobial activities of the AMPs were investigated using a modified standard microtiter dilution method ([Dong et al., 2014]). The peptides were serially diluted with a solution containing 0.01% acetic acid and 0.2% bovine serum albumin (BSA, Sigma) in 96-well plates. The bacteria grew to the mid-log phase and then were dissolved in MHB at concentration of 2–7 × 10^5 CFU/ml. The peptides and bacterial solution were mixed in equal volume in a 37°C incubator for 24 h. […] Mueller-Hinton broth with microorganisms was used as the positive control, and the pure broth was used as the negative control. The experiment was repeated at least three times independently.

[7] = test system: E. coli K88; conditions: MHB, 2–7 × 10^5 CFU/ml, 37°C, 24 h, no turbidity, at least three independent repeats
From the text: as §2, §3

[8] = test system: RAW 264.7 cells; assay: Cytotoxicity, MTT dye reduction assay; type: cell-based, murine; conditions: highest concentration of 128 μM, 4 h, three independent repeats
Method: The cytotoxicity of peptides was determined by healthy human erythrocytes and the murine macrophage cell line RAW 264.7 via a hemolysis assay and MTT dye reduction assay, respectively ([Wang et al., 2018]). In the hemolysis assay, fresh hRBCs from healthy people were centrifuged for 5 min at 1,000 × g and then washed three times with PBS (pH = 7.2). The 100 μL erythrocyte suspension and peptides were incubated for 1.5 h in an incubator at 37°C. The 96-well plates were centrifuged at 1,000 × g for 5 min, and the supernatants were carefully aspirated. The absorbance at 570 nm indicated the leakage of hemoglobin. The hRBCs in the PBS sample was used as the negative control, and 0.1% Triton X-100 addition served as the positive control. In the MTT dye reduction assay, 1.0–2.0 × 10^5 cells were plated in 96-well plates and then treated with various concentrations of peptides for 4 h at 37°C in a 5% CO2 incubator. Subsequently, 50 μL of MTT was added to the plated cells at a final concentration of 0.5 mg/mL and incubated for 4 h. Then, the cells were centrifuged at 1000 × g for 5 min, and the supernatants were discarded. Formazan crystals were dissolved in 150 μL of DMSO, and the OD570 nm was measured using a microplate reader (TECAN GENios F129004; TECAN, Austria). The experiment was repeated three times independently.

[9] = test system: S. aureus 29213; assay: MIC, modified microtiter dilution; type: cell-based, Staphylococcus aureus; conditions: MHB, 2–7 × 10^5 CFU/ml, 37°C, 24 h, no turbidity, at least three independent repeats
From the text: as §1

[10] = test system: S. aureus 25923; assay: MIC, modified microtiter dilution; type: cell-based, Staphylococcus aureus; conditions: MHB, 2–7 × 10^5 CFU/ml, 37°C, 24 h, no turbidity, at least three independent repeats
From the text: as §1

[11] = test system: E. coli 25922; assay: MIC, modified microtiter dilution; type: cell-based, Escherichia coli; conditions: MHB, 2–7 × 10^5 CFU/ml, 37°C, 24 h, lowest concentration with no turbidity, at least three independent repeats
From the text: as §1

[12] = test system: E. coli UB1005; assay: MIC, modified microtiter dilution; type: cell-based, Escherichia coli; conditions: MHB, 2–7 × 10^5 CFU/ml, 37°C, 24 h, no turbidity, at least three independent repeats
From the text: as §1

[13] = test system: L. rhamnosus 1.0936; assay: MIC, modified microtiter dilution; type: cell-based, Lactobacillus rhamnosus; conditions: 2–7 × 10^5 CFU/ml, 37°C, 24 h, no turbidity, at least three independent repeats
From the text: as §1

[14] = test system: L. rhamnosus 1.0385; assay: MIC, modified microtiter dilution; type: cell-based, Lactobacillus rhamnosus; conditions: 2–7 × 10^5 CFU/ml, 37°C, 24 h, no turbidity, at least three independent repeats
From the text: as §1

[15] = test system: L. rhamnosus 1.0911; assay: MIC, modified microtiter dilution; type: cell-based, Lactobacillus rhamnosus; conditions: 2–7 × 10^5 CFU/ml, 37°C, 24 h, no turbidity, at least three independent repeats
From the text: as §1

[16] = test system: L. rhamnosus 7469; assay: MIC, modified microtiter dilution; type: cell-based, Lactobacillus rhamnosus; conditions: 2–7 × 10^5 CFU/ml, 37°C, 24 h, no turbidity, at least three independent repeats
From the text: as §1

[17] = test system: S. typhimurium 14028; assay: MIC, modified microtiter dilution; type: cell-based, Salmonella typhimurium; conditions: MHB, 2–7 × 10^5 CFU/ml, 37°C, 24 h, no turbidity, at least three independent repeats
From the text: as §1

[18] = test system: S. typhimurium 7731; assay: MIC, modified microtiter dilution; type: cell-based, Salmonella typhimurium; conditions: MHB, 2–7 × 10^5 CFU/ml, 37°C, 24 h, no turbidity, at least three independent repeats
From the text: as §1

[19] = test system: S. pullorum 7913; assay: MIC, modified microtiter dilution; type: cell-based, Salmonella pullorum; conditions: MHB, 2–7 × 10^5 CFU/ml, 37°C, 24 h, no turbidity, at least three independent repeats
From the text: as §1

## C[C@@H]1NC(=O)[C@@H](N)CSSC[C@@H](C(N)=O)NC(=O)[C@H](Cc2ccccc2)NC(=O)[C@H](Cc2ccc(O)cc2)NC(=O)[C@H](CO)NC1=O [Peptide S5] (H-CASYFC-NH2; disulfide 1-6; N-terminus and C-terminus assumed)
[1]; control without added salt, unit not printed in Table 4, μM as in Table 3
  MIC against S. aureus 29213 (column MIC, no added salt): >64 µM
[2]
  antimicrobial activity against the tested microorganisms: failed to show antimicrobial activity

## RWWWAA-NH2 [Peptide S8]
[3]
  MIC L. plantarum 8014: >64 µM
[4]
  MIC P. aeruginosa 27853: >64 µM
[5]
  MIC MRSA 43300: >64 µM
[1]; 4 μM FeCl3, unit not given in Table 4
  MIC against S. aureus 29213, FeCl3: >64 µM
[1]; 6 μM NH4Cl, unit not given in Table 4
  MIC against S. aureus 29213, NH4Cl: >64 µM
[1]; 8 μM ZnCl2, unit not given in Table 4
  MIC against S. aureus 29213, ZnCl2: 64 µM
[1]; 1 mM MgCl2, unit not given in Table 4
  MIC against S. aureus 29213, MgCl2: >64 µM
[1]; 2 mM CaCl2, unit not given in Table 4
  MIC against S. aureus 29213, CaCl2: >64 µM
[1]; 4.5 mM KCl, unit not given in Table 4
  MIC against S. aureus 29213, KCl: >64 µM
[1]; 150 mM NaCl, unit not given in Table 4
  MIC against S. aureus 29213, NaCl: >64 µM
[6]
  MIC E. coli K99: >64 µM
[7]
  MIC E. coli K88: >64 µM
[8]
  RAW 264.7 cell survival rate: 85%
[9]
  MIC S. aureus 29213: >64 µM
[10]
  MIC S. aureus 25923: >64 µM
[11]
  MIC E. coli 25922: >64 µM
[12]
  MIC E. coli UB1005: >64 µM
[13]
  MIC L. rhamnosus 1.0936: >64 µM
[14]
  MIC L. rhamnosus 1.0385: >64 µM
[15]
  MIC L. rhamnosus 1.0911: >64 µM
[16]
  MIC L. rhamnosus 7469: >64 µM
[17]
  MIC S. typhimurium 14028: >64 µM
[18]
  MIC S. typhimurium 7731: >64 µM
[19]
  MIC S. pullorum 7913: >64 µM
